Experimental data taken from US7244850B2, “Benzimidazole derivatives, compositions containing them, preparation thereof and uses thereof” (AstraZeneca AB, priority 2003, dated 2007).

What was measured:
human CB1 receptor = target: T1, human CB1 receptor (Homo sapiens, UniProt P21554); experiment: hCB1 receptor binding (3H-CP55,940 displacement); conditions: hCB1 membranes, 3H-CP55,940 radioligand; Ki=IC50/(1+[rad]/Kd); read-out: Ki towards human CB1 receptors
T1 construct: purchased Receptor Biology
Description: (§1) Human CB1 receptor from Receptor Biology (hCB1) or human CB2 receptor from BioSignal (hCB2) membranes are thawed at 37° C., passed 3 times through a 25-gauge blunt-end needle, diluted in the cannabinoid binding buffer (50 mM Tris, 2.5 mM EDTA, 5 mM MgCl2, and 0.5 mg/mL BSA fatty acid free, pH 7.4) and aliquots containing the appropriate amount of protein are distributed in 96-well plates. The IC50 of the compounds of the invention at hCB1 and hCB2 are evaluated from 10-point dose-response curves done with ^3H-CP55,940 at 20000 to 25000 dpm per well (0.17-0.21 nM) in a final volume of 300 μl. The total and non-specific binding are determined in the absence and presence of 0.2 μM of HU210 respectively. The plates are vortexed and incubated for 60 minutes at room temperature, filtered through Unifilters GF/B (presoaked in 0.1% polyethyleneimine) with the Tomtec or Packard harvester using 3 mL of wash buffer (50 mM Tris, 5 mM MgCl2, 0.5 mg BSA pH 7.0). The filters are dried for 1 hour at 55° C. The radioactivity (cpm) is counted in a TopCount (Packard) after adding 65 μl/well of MS-20 scintillation liquid.
(§2) Based on the above assays, the dissociation constant (Ki) for a particular compound of the invention towards a particular receptor is determined using the following equation: Ki=IC50/(1+[rad]/Kd), […]

human CB2 receptor = target: T2, human CB2 receptor (Homo sapiens, UniProt P34972); experiment: hCB2 receptor binding (3H-CP55,940 displacement)
T2 construct: purchased BioSignal
Description: as §1, §2

T2 sequence (P34972 whole entry): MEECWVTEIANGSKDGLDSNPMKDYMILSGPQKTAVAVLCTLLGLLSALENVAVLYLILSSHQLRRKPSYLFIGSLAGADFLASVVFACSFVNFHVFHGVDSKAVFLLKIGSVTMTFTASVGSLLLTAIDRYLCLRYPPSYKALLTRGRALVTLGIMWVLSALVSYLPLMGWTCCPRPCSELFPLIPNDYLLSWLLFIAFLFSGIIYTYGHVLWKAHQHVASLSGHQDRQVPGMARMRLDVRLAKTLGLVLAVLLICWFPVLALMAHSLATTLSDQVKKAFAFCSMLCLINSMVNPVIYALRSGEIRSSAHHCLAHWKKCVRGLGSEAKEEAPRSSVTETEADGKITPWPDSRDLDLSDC
T1 sequence (P21554 whole entry): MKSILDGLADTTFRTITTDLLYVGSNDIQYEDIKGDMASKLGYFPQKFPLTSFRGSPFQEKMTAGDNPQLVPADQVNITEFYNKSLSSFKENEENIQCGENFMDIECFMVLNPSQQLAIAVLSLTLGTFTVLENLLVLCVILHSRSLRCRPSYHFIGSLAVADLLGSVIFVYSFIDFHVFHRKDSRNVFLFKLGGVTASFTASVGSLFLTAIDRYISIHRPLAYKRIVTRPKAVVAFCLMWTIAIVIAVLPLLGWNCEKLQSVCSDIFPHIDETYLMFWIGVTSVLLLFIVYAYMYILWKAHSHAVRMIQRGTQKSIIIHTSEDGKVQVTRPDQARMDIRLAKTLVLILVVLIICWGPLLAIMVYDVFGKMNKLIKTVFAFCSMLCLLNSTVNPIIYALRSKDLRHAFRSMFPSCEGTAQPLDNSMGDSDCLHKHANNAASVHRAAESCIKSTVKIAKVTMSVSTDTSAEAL

CC(C)(C)c1nc2cc(C(=O)N(CC(F)(F)F)CC(F)(F)F)ccc2n1CC1CCCCC1 [compound 1, 2-tert-Butyl-1-(cyclohexylmethyl)-N,N-bis(2,2,2-trifluoroethyl)1H-benzimidazole-5-carboxamide]
Ki (human CB1 receptor): ~0.034 µM
Ki (human CB2 receptor): ~0.033 µM
